Patent US6613903B2, “Modulators of protein tyrosine phosphatases (PTPases)” (Novo Nordisk A/S, priority 2000, dated 2003)

What follows are compounds tested against T1, truncated form of PTP1 B (corresponding to the first 321 amino acids) (Homo sapiens, UniProt P18031) (assay: Inhibition of PTP1B, p-nitrophenyl phosphate as substrate, enzyme kinetics). Settings: truncated PTP1B expressed in E. coli; substrate p-nitrophenyl phosphate 0.16 to 10 mM; sodium acetate pH 5.5; 25° C. for 60 minutes; absorbance at 405 nm.
T1 construct: truncated form of PTP1 B (corresponding to the first 321 amino acids); made in house; host or cells: E. coli
T1 sequence (P18031 1-321): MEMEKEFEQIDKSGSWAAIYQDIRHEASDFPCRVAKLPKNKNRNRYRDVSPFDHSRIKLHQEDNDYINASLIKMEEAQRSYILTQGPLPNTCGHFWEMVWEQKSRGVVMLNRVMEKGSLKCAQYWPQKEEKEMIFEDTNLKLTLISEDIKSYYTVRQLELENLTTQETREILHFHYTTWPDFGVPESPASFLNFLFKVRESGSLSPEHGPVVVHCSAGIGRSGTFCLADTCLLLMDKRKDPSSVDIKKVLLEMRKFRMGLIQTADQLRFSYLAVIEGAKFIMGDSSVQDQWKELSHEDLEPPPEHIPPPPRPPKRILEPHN
Format: biochemical
Procedure: The compounds are evaluated for biological activity with a truncated form of PTP1 B (corresponding to the first 321 amino acids), which was expressed in E. coli and purified to apparent homogeneity using published procedures well-known to those skilled in the art. The enzyme reactions are carried out using standard conditions essentially as described by Burke et al. (Biochemistry 35; 15989-15996 (1996)). The assay conditions are as follows. Appropriate concentrations of the compounds of the invention are added to the reaction mixtures containing different concentrations of the substrate, p-nitrophenyl phosphate (range: 0.16 to 10 mM—final assay concentration). The buffer used was 100 mM sodium acetate pH 5.5, 50 mM sodium chloride, 0.1% (w/v) bovine serum albumin and 5 mM dithiothreitol (total volume […]). The reaction was started by addition of the enzyme and carried out in microtiter plates at 25° C. for 60 minutes. The reactions are stopped by addition of NaOH. The enzyme activity was determined by measurement of the absorbance at 405 nm with appropriate corrections for absorbance at 405 nm of the compounds and p-nitrophenyl phosphate. The data are analyzed using nonlinear regression fit to classical Michaelis Menten enzyme kinetic models. Inhibition is expressed as Ki values in μM.

Point of comparison: CCOc1cccc2cc(C(=O)NC[C@@H]3NCCc4c3sc(NC(=O)C(=O)O)c4C(=O)O)oc12 [Example 20, 7-(S)-(((7-Ethoxy-benzofuran-2-carbonyl)amino)methyl)-2-(oxalyl-amino)-4,5,6,7-tetrahydro-thieno[2,3-c]pyridine-3-carboxylic acid], Ki 110 nM. Against it:
- O=C(O)C(=O)Nc1sc2c(c1C(=O)O)CCNC2CNC(=O)c1ccccc1 (centres unmarked) [Example 1, 7-(Benzoylamino-methyl)-2-(oxalyl-amino)-4,5,6,7-tetrahydro-thieno[2,3-c]pyridine-3-carboxylic acid] — 4.5-fold higher, 490 nM
- O=C(O)C(=O)Nc1sc2c(c1C(=O)O)CCNC2CNC(=O)c1ccc(NC(=O)c2ccccc2)cc1 (centres unmarked) [Example 6, 7-((4-Benzoylamino-benzoylamino)methyl)-2-(oxalyl-amino)-4,5,6,7-tetrahydro-thieno[2,3-c]pyridine-3-carboxylic acid] — 3-fold higher, 330 nM
- O=C(CCc1ccc(-c2ccccc2)cc1)NCC1NCCc2c1sc(NC(=O)C(=O)O)c2C(=O)O (centres unmarked) [Example 9, 7-((3-Biphenyl-4-yl-propionylamino)methyl)-2-(oxalyl-amino)-4,5,6,7-tetrahydro-thieno[2,3-c]-pyridine-3-carboxylic acid] — 1.8-fold lower, 62 nM
- O=C(O)C(=O)Nc1sc2c(c1C(=O)O)CCNC2CNC(=O)c1ccc(Cc2ccccc2)cc1 (centres unmarked) [Example 11, 7-((4-Benzyl-benzoylamino)methyl)-2-(oxalyl-amino)-4,5,6,7-tetrahydro-thieno[2,3-c]pyridine-3-carboxylic acid] — within 1.5-fold, 140 nM
- O=C(O)C(=O)Nc1sc2c(c1C(=O)O)CCNC2CNC(=O)c1cccc2ccccc12 (centres unmarked) [Example 12, 7-(((Naphthalene-1-carbonyl)amino)methyl)-2-(oxalyl-amino)-4,5,6,7-tetrahydro-thieno[2,3-c]pyridine-3-carboxylic acid] — within 1.5-fold, 120 nM
- O=C(CCc1ccc2ccccc2c1)NCC1NCCc2c1sc(NC(=O)C(=O)O)c2C(=O)O (centres unmarked) [Example 13, 7-((3-Naphthalen-2-yl-propionylamino)methyl)-2-(oxalyl-amino)-4,5,6,7-tetrahydro-thieno[2,3-c]pyridine-3-carboxylic acid] — 1.6-fold lower, 70 nM
- O=C(O)C(=O)Nc1sc2c(c1C(=O)O)CCNC2CNC(=O)c1c(O)ccc2ccccc12 (centres unmarked) [Example 14, 7-(((2-Hydroxy-naphthalene-1-carbonyl)amino)methyl)-2-(oxalyl-amino)-4,5,6,7-tetrahydro-thieno[2,3-c]pyridine-3-carboxylic acid] — 1.6-fold lower, 70 nM
- CC(=O)Nc1ccc(S(=O)(=O)NC[C@@H]2NCCc3c2sc(NC(=O)C(=O)O)c3C(=O)O)cc1 [Example 22, 7-(S)-((4-Acetylamino-benzenesulfonylamino)methyl)-2-(oxalyl-amino)-4,5,6,7-tetrahydro-thieno[2,3-c]pyridine-3-carboxylic acid] — within 1.5-fold, 91 nM
- O=C(O)C(=O)Nc1sc2c(c1C(=O)O)CCN[C@H]2CNC(=O)c1ccc2nc[nH]c2c1 [Example 24, 7-(S)-(((3H-Benzoimidazole-5-carbonyl)amino)methyl)-2-(oxalyl-amino)-4,5,6,7-tetrahydro-thieno[2,3-c]pyridine-3-carboxylic acid] — 5.8-fold higher, 640 nM
- O=C(O)C(=O)Nc1sc2c(c1C(=O)O)CCN[C@H]2CNC(=O)c1cc2cc(O)ccc2[nH]1 [Example 25, 7-(S)-(((5-Hydroxy-1H-indole-2-carbonyl)amino)methyl)-2-(oxalyl-amino)-4,5,6,7-tetrahydro-thieno[2,3-c]pyridine-3-carboxylic acid] — 29-fold higher, 3200 nM
- O=C(O)C(=O)Nc1sc2c(c1C(=O)O)CCN[C@@H]2CNC(=O)c1cc2cc(O)ccc2[nH]1 [Example 26, 7-(R)-(((5-Hydroxy-1H-indole-2-carbonyl)amino)methyl)-2-(oxalyl-amino)-4,5,6,7-tetrahydro-thieno[2,3-c]pyridine-3-carboxylic acid] — 24-fold higher, 2600 nM
- O=C(O)C(=O)Nc1sc2c(c1C(=O)O)CCN[C@@H]2CNC(=O)c1cn(Cc2ccccc2)c2ccccc12 [Example 27, 7-(R)-(((1-Benzyl-1H-indole-3-carbonyl)amino)methyl)-2-(oxalyl-amino)-4,5,6,7-tetrahydro-thieno[2,3-c]pyridine-3-carboxylic acid] — 19-fold higher, 2100 nM
- O=C(O)C(=O)Nc1sc2c(c1C(=O)O)CCN[C@H]2CNCc1ccc(Oc2ccccc2)cc1 [Example 28, 2-(Oxalyl-amino)-7-(S)-((4-phenoxy-benzylamino)methyl)-4,5,6,7-tetrahydro-thieno[2,3-c]pyridine-3-carboxylic acid] — 1.9-fold lower, 58 nM
- O=C(NC[C@@H]1NCCc2c1sc(NC(=O)C(=O)O)c2C(=O)O)Nc1ccc(Oc2ccccc2)cc1 [Example 29, 2-(Oxalyl-amino)-7-(S)-(3-(4-phenoxy-phenyl)ureidomethyl)-4,5,6,7-tetrahydro-thieno[2,3-c]pyridine-3-carboxylic acid] — 3.5-fold lower, 31 nM
- O=C(O)C(=O)Nc1sc2c(c1C(=O)O)CCNC2CNC(=O)c1cn(Cc2ccccc2)c2ccccc12 (centres unmarked) [Example 30, 7-(((1-Benzyl-1H-indole-3-carbonyl)amino)methyl)-2-(oxalyl-amino)-4,5,6,7-tetrahydro-thieno[2,3-c]pyridine-3-carboxylic acid] — 1.6-fold lower, 70 nM
- CC(=O)NCC1NCCc2c1sc(NC(=O)C(=O)O)c2C(=O)O (centres unmarked) [Example 31, 7-(Acetylamino-methyl)-2-(oxalyl-amino)-4,5,6,7-tetrahydro-thieno[2,3-c]pyridine-3-carboxylic acid] — 10-fold higher, 1100 nM
- CC(C)(N)CCCC(=O)NCC1NCCc2c1sc(NC(=O)C(=O)O)c2C(=O)O (centres unmarked) [Example 32, 7-((5-Amino-5-methyl-hexanoylamino)methyl)-2-(oxalyl-amino)-4,5,6,7-tetrahydro-thieno[2,3-c]pyridine-3-carboxylic acid] — within 1.5-fold, 78 nM
- O=C(O)C(=O)Nc1sc2c(c1C(=O)O)CCN[C@H]2CNC(=O)c1cc2cc(F)ccc2[nH]1 [Example 33, 7-(S)-(((5-Fluoro-1H-indole-2-carbonyl)amino)methyl)-2-(oxalyl-amino)-4,5,6,7-tetrahydro-thieno[2,3-c]pyridine-3-carboxylic acid] — 6.1-fold lower, 18 nM
- CC(=O)OCOC(=O)Oc1ccc2[nH]c(C(=O)NC[C@H]3c4sc(NC(=O)C(=O)O)c(C(=O)O)c4CCN3C(=O)OCOC(C)=O)cc2c1 [Example 35, 7-(S)-(((5-Acetoxymethoxycarbonyloxy-1H-indole-2-carbonyl)amino)methyl)-2-(oxalyl-amino)-4,7-dihydro-5H-thieno[2,3-c]pyridine-3,6-dicarboxylic acid 6-acetoxymethyl ester] — 3.4-fold lower, 32 nM
- O=C(O)C(=O)Nc1sc2c(c1C(=O)O)CCN[C@H]2CNC(=O)c1ccc(-c2cccc(-c3ccccc3)c2)cc1 [Example 36] — 2.6-fold lower, 42 nM
- O=C(O)C(=O)Nc1sc2c(c1C(=O)O)CCN[C@H]2CNC(=O)c1cc2ccccc2[nH]1 [Example 37, 7-(S)-(((1H-Indole-2-carbonyl)amino)methyl)-2-(oxalyl-amino)-4,5,6,7-tetrahydro-thieno[2,3-c]pyridine-3-carboxylic acid] — 3.5-fold lower, 31 nM
- CCOC(=O)C(=O)Nc1sc2c(c1C(=O)O)CCNC2CNC(=O)c1cc2cc(O)ccc2[nH]1 (centres unmarked) [Example 38, 2-(Ethoxyoxalyl-amino)-7-(((5-hydroxy-1H-indole-2-carbonyl)amino)methyl)-4,5,6,7-tetrahydro-thieno[2,3-c]pyridine-3-carboxylic acid] — 1.7-fold lower, 63 nM
- CCOC(=O)c1c(NC(=O)C(=O)OCC(C)(C)C)sc2c1CCNC2CNC(=O)c1cc2cc(O)ccc2[nH]1 (centres unmarked) [Example 40, 2-((2,2-Dimethyl-propoxyoxalyl)amino)-7-(((5-hydroxy-1H-indole-2-carbonyl)-amino)methyl)-4,5,6,7-tetrahydro-thieno[2,3-c]pyridine-3-carboxylic acid ethyl ester] — 12-fold higher, 1300 nM
- CCOC(=O)c1c(NC(=O)C(=O)O)sc2c1CCNC2CNC(=O)c1cc2cc(O)ccc2[nH]1 (centres unmarked) [Example 41, 7-(((5-Hydroxy-1H-indole-2-carbonyl)amino)methyl)-2-(oxalyl-amino)-4,7-dihydro-5H-thieno[2,3-c]pyridine-3-carboxylic acid ethyl ester] — 8.2-fold higher, 900 nM
- CCOC(=O)N1CCc2c(sc(NC(=O)C(=O)O)c2C(=O)O)C1CNC(=O)c1cc2cc(O)ccc2[nH]1 (centres unmarked) [Example 42, 7-(((5-Hydroxy-1H-indole-2-carbonyl)amino)methyl)-2-(oxalyl-amino)-4,7-dihydro-5H-thieno[2,3-c]pyridine-3,6-dicarboxylic acid 6-ethyl ester] — within 1.5-fold, 120 nM
